Each structure is given as a SMILES string. Read-outs that look alike come from different tables or passages of the source. Some results are limits rather than exact numbers.

For the experiment, the target named is T1, SIRT1 (Homo sapiens, UniProt Q96EB6).
T1 sequence (Q96EB6 1-747): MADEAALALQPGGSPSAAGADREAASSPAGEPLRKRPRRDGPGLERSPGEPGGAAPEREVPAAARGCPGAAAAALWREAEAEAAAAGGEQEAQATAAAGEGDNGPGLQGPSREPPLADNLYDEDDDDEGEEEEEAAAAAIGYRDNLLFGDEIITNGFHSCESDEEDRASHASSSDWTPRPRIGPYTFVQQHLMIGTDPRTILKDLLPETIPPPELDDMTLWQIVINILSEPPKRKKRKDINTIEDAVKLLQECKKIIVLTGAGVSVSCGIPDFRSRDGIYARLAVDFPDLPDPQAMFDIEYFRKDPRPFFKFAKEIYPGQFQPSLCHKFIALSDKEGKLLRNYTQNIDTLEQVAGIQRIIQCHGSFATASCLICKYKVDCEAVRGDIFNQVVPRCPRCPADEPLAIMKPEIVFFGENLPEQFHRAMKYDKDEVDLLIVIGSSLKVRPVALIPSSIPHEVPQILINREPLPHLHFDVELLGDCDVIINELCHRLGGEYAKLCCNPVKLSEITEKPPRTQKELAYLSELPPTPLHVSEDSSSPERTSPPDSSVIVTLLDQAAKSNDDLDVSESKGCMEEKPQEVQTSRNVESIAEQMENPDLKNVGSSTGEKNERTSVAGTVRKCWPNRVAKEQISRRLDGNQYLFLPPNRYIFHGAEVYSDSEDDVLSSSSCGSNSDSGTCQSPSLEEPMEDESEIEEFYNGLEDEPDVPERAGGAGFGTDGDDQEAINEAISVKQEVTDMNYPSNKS
Briefly: TAMRA based mass spectrometry assay of SIRT1 activity. The class given is biochemical. Conditions: for Emax: read-out: TAMRA % Fold Act. The essentials: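 Deacetylation of a biotinylated, TAMRA-tagged p53-based peptide (0.5 μM) by 10 nM His-tagged SIRT1 with 120 μM βNAD+, 25 °C for 25 min, pH 8 Tris-acetate buffer, across a compound concentration range. Quenched by formic acid and read by mass spec as product peptide or OAADPR; activity relative to DMSO reactions, nicotinamide defining maximal inhibition.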

Setting [1] is: concentration of test compound giving 150% activation of SIRT1, TAMRA peptide substrate.
The mark [2] stands for this setting: percent maximum fold activation of SIRT1, TAMRA peptide substrate.
Setting [3] is: TAMRA peptide substrate, concentration giving 150% activation of SIRT1.
The mark [4] stands for this setting: TAMRA peptide substrate, percent maximum fold activation.
The mark [5] stands for this setting: TAMRA assay, concentration giving 150% activation of SIRT1.
Setting [6] is: TAMRA assay, percent maximum fold activation.

`O=C(Nc1nccs1)c1cnc2ccc(-c3ccccc3C(F)F)nn12` [Compound 33, 6-(2-(difluoromethyl)phenyl)-N-(thiazol-2-yl)imidazo[1,2-b]pyridazine-3-carboxamide]: the “TAMRA EC1.5 (μM)” value under setting [1] is “B (EC1.5 1-25 μM)”. Moreover, under setting [2], the Emax is under 350%.
For the compound `Cc1nn2ccc(-c3ccccc3C(F)(F)F)nc2c1NC(=O)c1ncccn1` [Compound 570], the “TAMRA EC1.5” value under setting [3] is “B (EC1.5 1-25 μM)”. In addition, the Emax under setting [4] was under 350%.
As to `Cc1nn2ccc(-c3ccccc3C(F)(F)F)nc2c1C(=O)Nc1ccncn1` [Compound 547], the “TAMRA EC1.5” value under setting [3] is given as “A (EC1.5<1 μM)”. Moreover, the Emax under setting [4] is at least 350%.
As to `Cc1nc2ccc(-c3ccccc3Cl)nn2c1NC(=O)c1ncccn1` [Compound 349], under setting [5], the “TAMRA EC1.5 (μM)” value was “C (EC1.5>25 μM)”. The Emax under setting [6] is under 350%.
As to `CCOc1ccc(NC(=O)c2c(C)nc3ccc(-c4ccccc4C(F)(F)F)nn23)nn1` [Compound 666], the “TAMRA EC1.5 (μM)” value under setting [5] is “A (EC1.5<1 μM)”. In addition, the Emax under setting [6] was at least 350%.
Take `O=C(Nc1ccnc(OCC(O)CO)c1)c1cnc2ccc(-c3ccccc3Cl)nn12` (stereo not shown) [Compound 283]: the “TAMRA EC1.5 (μM)” value under setting [5] is listed as “A (EC1.5<1 μM)”. Besides, the Emax under setting [6] was under 350%.
As for `O=C(Nc1nccs1)c1cnc2ccc(-c3cccc(C(F)(F)F)c3)nn12` [Compound 3], under setting [1], the “TAMRA EC1.5 (μM)” value is recorded as “B (EC1.5 1-25 μM)”. For the same compound, under setting [2], the Emax was under 350%.
With `Cc1cc2ncc(C(=O)Nc3cnccn3)n2nc1-c1ccccc1C(F)(F)F` [Compound 246], under setting [5], the “TAMRA EC1.5 (μM)” value is on record as “B (EC1.5 1-25 μM)”. Also, the Emax under setting [6] was at least 350%.
For the compound `O=C(Nc1cnn2ccc(-c3ccccc3C(F)(F)F)nc12)c1cccnc1` [Compound 250], the “TAMRA EC1.5 (μM)” value under setting [5] is reported as “C (EC1.5>25 μM)”. Moreover, the Emax under setting [6] is under 350%.
With `COc1cc(C)nc(NC(=O)c2cnc3ccc(-c4ccccc4C(F)(F)F)nn23)n1` [Compound 174], the “TAMRA EC1.5 (μM)” value under setting [1] is reported as “A (EC1.5<1 μM)”. For the same compound, the Emax under setting [2] is at least 350%.
Turning to `Cc1nc(C(=O)Nc2cnc3ccc(-c4ccccc4C#N)nn23)c(C)s1` [Compound 334], the “TAMRA EC1.5 (μM)” value under setting [5] is on record as “A (EC1.5<1 μM)”. In addition, the Emax under setting [6] is at least 350%.
Take `O=C(Nc1cnc2ccc(-c3ccccc3Cl)nn12)c1nccs1` [Compound 294]: under setting [5], the “TAMRA EC1.5 (μM)” value was “B (EC1.5 1-25 μM)”. The Emax under setting [6] is under 350%.
Consider `Cc1nc2ccc(-c3ccccc3OC[C@H](O)CO)nn2c1C(=O)Nc1cnccn1` [Compound 775], for which the “TAMRA EC1.5 (μM)” value under setting [5] was “A (EC1.5<1 μM)”. Further, the Emax under setting [6] is at least 350%.
As to `COCCn1cc(NC(=O)c2cnc3ccc(-c4ccccc4C(F)(F)F)nn23)cn1` [Compound 154], under setting [1], the “TAMRA EC1.5 (μM)” value is “B (EC1.5 1-25 μM)”. Besides, under setting [2], the Emax is at least 350%.
For `O=C(Nc1nccs1)c1cnc2ccc(-c3cccc(N4CCOCC4)c3)nn12` [Compound 9], in that order: “C (EC1.5>25 μM)” and under 350%.
As to `Cc1cc(C)nc(NC(=O)c2cnc3c(C)c(C)c(-c4ccccc4C(F)(F)F)nn23)c1` [Compound 228], the “TAMRA EC1.5 (μM)” value under setting [5] is on record as “A (EC1.5<1 μM)”. In addition, the Emax under setting [6] was at least 350%.
Turning to `O=C(Nc1cnn2ccc(-c3ccccc3C(F)(F)F)nc12)c1cncc(OC[C@@H](O)CO)n1` [Compound 783], under setting [5], the “TAMRA EC1.5 (μM)” value is recorded as “A (EC1.5<1 μM)”. Also, the Emax under setting [6] was at least 350%.
`O=C(Nc1cnc2ccc(-c3ccccc3F)nn12)c1ncccn1` [Compound 282]: under setting [5], the “TAMRA EC1.5 (μM)” value was “B (EC1.5 1-25 μM)”. The Emax under setting [6] is under 350%.
Regarding `Cc1cc(NC(=O)c2c(C)nc3c(C)cc(-c4ccccc4C(F)(F)F)nn23)cc(C)n1` [Compound 432], the “TAMRA EC1.5” value under setting [3] is “A (EC1.5<1 μM)”. Besides, the Emax under setting [4] was at least 350%.
For the compound `N#Cc1ccccc1-c1ccc2ncc(C(=O)Nc3cccc(N4CCOCC4)n3)n2n1` [Compound 191], under setting [1], the “TAMRA EC1.5 (μM)” value is reported as “A (EC1.5<1 μM)”. The Emax under setting [2] was under 350%.
In the case of `Cc1cc(NC(=O)c2cnc3ccc(-c4ccccc4Cl)nn23)ccn1` [Compound 259], the “TAMRA EC1.5 (μM)” value under setting [5] is “B (EC1.5 1-25 μM)”. Further, the Emax under setting [6] is at least 350%.
On to `Cc1cc2ncc(NC(=O)c3cccc(N4CCOCC4)n3)n2nc1-c1ccccc1C(F)(F)F` [Compound 435], for which the “TAMRA EC1.5” value under setting [3] is “A (EC1.5<1 μM)”. For the same compound, the Emax under setting [4] was at least 350%.
Turning to `COc1cc(NC(=O)c2cnn3ccc(-c4ccccc4OC(F)(F)F)nc23)ncn1` [Compound 703], under setting [5], the “TAMRA EC1.5 (μM)” value was “A (EC1.5<1 μM)”. Besides, the Emax under setting [6] was at least 350%.
Take `O=C(Nc1cnc2ccc(-c3ccccc3F)nn12)c1cscn1` [Compound 298]: the “TAMRA EC1.5 (μM)” value under setting [5] is “B (EC1.5 1-25 μM)”. Also, the Emax under setting [6] was under 350%.
In the case of `Cc1cc(C)nc(NC(=O)c2c(O)nc3ccc(-c4ccccc4C(F)(F)F)nn23)c1` [Compound 365], the “TAMRA EC1.5 (μM)” value under setting [5] is “B (EC1.5 1-25 μM)”. Under setting [6], the Emax is under 350%.
As for `Cc1cc(C)c(NC(=O)c2c(C)nn3ccc(-c4ccccc4C(F)(F)F)nc23)cn1` [Compound 708], the “TAMRA EC1.5 (μM)” value under setting [5] was “B (EC1.5 1-25 μM)”. The Emax under setting [6] was at least 350%.
With `Cc1ccc(NC(=O)c2cnn3ccc(-c4ccccc4C(F)(F)F)nc23)nn1` [Compound 655], under setting [5], the “TAMRA EC1.5 (μM)” value is reported as “A (EC1.5<1 μM)”. In addition, the Emax under setting [6] is at least 350%.
As for `O=C(Nc1ncco1)c1cnc2ccc(-c3ccccc3C(F)(F)F)nn12` [Compound 114], under setting [1], the “TAMRA EC1.5 (μM)” value was “B (EC1.5 1-25 μM)”. Under setting [2], the Emax is under 350%.
As to `COc1nccc(NC(=O)c2c(C)nc3ccc(-c4ccccc4OC(F)(F)F)nn23)n1` [Compound 477], under setting [3], the “TAMRA EC1.5” value was “A (EC1.5<1 μM)”. For the same compound, the Emax under setting [4] is at least 350%.
Turning to `O=C(Nc1cccc(CN2CC[C@@H](F)C2)n1)c1cnc2ccc(-c3ccccc3C(F)(F)F)nn12` [Compound 390], under setting [5], the “TAMRA EC1.5 (μM)” value is listed as “A (EC1.5<1 μM)”. Also, the Emax under setting [6] was at least 350%.
`Cc1nc2c(C)cc(-c3ccccc3C(F)(F)F)nn2c1C(=O)Nc1ccc(F)cn1` [Compound 474]: the “TAMRA EC1.5” value under setting [3] was “A (EC1.5<1 μM)”. Under setting [4], the Emax is at least 350%.
For the compound `Cc1scnc1C(=O)Nc1cnc2c(C)c(C)c(-c3ccccc3C(F)(F)F)nn12` [Compound 403], the “TAMRA EC1.5” value under setting [3] was “A (EC1.5<1 μM)”. Further, the Emax under setting [4] was at least 350%.
Consider `O=C(Nc1cccc(CN2CCOCC2)n1)c1cnc2ccc(-c3cc(F)cc(F)c3)nn12` [Compound 45], for which the “TAMRA EC1.5 (μM)” value under setting [1] was “B (EC1.5 1-25 μM)”. Moreover, the Emax under setting [2] is under 350%.
With `Cc1ccc(NC(=O)c2c(C)nn3ccc(-c4ccccc4C(F)(F)F)nc23)cn1` [Compound 637], the “TAMRA EC1.5 (μM)” value under setting [5] is “A (EC1.5<1 μM)”. The Emax under setting [6] was at least 350%.
For `O=C(Nc1cnc2ccc(-c3ccccc3C(F)(F)F)nn12)c1cc(O)ncn1` [Compound 705], the “TAMRA EC1.5 (μM)” value under setting [5] is given as “A (EC1.5<1 μM)”. The Emax under setting [6] was at least 350%.
Turning to `Cc1cc(NC(=O)c2c(C)nn3ccc(-c4ccccc4C(F)(F)F)nc23)nc(C)n1` [Compound 787], the “TAMRA EC1.5 (μM)” value under setting [5] was “A (EC1.5<1 μM)”. Under setting [6], the Emax was at least 350%.
Take `O=C(Nc1cccc(N2CCOCC2)n1)c1cnc2ccc(-c3ccccc3C(F)F)nn12` [Compound 36]: under setting [1], the “TAMRA EC1.5 (μM)” value is given as “A (EC1.5<1 μM)”. Besides, the Emax under setting [2] was at least 350%.
Consider `O=C(Nc1cnc2ccc(-c3ccccc3C(F)(F)F)nn12)c1cnccn1` [Compound 88], for which the “TAMRA EC1.5 (μM)” value under setting [1] is given as “A (EC1.5<1 μM)”. For the same compound, the Emax under setting [2] was at least 350%.
As for `O=C(Nc1cnc2ccc(-c3ccccc3F)nn12)c1cccc(N2CCOCC2)n1` [Compound 301], under setting [5], the “TAMRA EC1.5 (μM)” value is given as “A (EC1.5<1 μM)”. Also, the Emax under setting [6] was at least 350%.
For the compound `O=C(Nc1cccnc1)c1cnc2ccc(-c3ccccc3C(F)(F)F)nn12` [Compound 108], under setting [1], the “TAMRA EC1.5 (μM)” value is “B (EC1.5 1-25 μM)”. Further, the Emax under setting [2] is under 350%.
For `Cn1ccnc1C(=O)Nc1cnc2ccc(-c3ccccc3C(F)(F)F)nn12` [Compound 91], in that order: “B (EC1.5 1-25 μM)” and at least 350%.
`O=C(Nc1cccc(CN2CCC(F)(F)CC2)n1)c1cnc2ccc(-c3ccccc3C(F)(F)F)nn12` [Compound 391]: under setting [5], the “TAMRA EC1.5 (μM)” value was “A (EC1.5<1 μM)”. In addition, the Emax under setting [6] was at least 350%.
As for `Cc1cc(C)nc(NC(=O)c2c(C)nc3ccc(-c4ccccc4OC[C@H](O)CO)nn23)c1` [Compound 757], the “TAMRA EC1.5 (μM)” value under setting [5] is recorded as “B (EC1.5 1-25 μM)”. The Emax under setting [6] is at least 350%.
Consider `Cc1c(-c2ccccc2Cl)nn2c(C(=O)Nc3cccc(N4CCOCC4)n3)cnc2c1C` [Compound 229], for which, under setting [5], the “TAMRA EC1.5 (μM)” value is “A (EC1.5<1 μM)”. For the same compound, the Emax under setting [6] is at least 350%.

Source of the values: patent US9957271B2, “Substituted bicyclic aza-heterocycles and analogues as sirtuin modulators” (GlaxoSmithKline, LLC, priority 2012, dated 2018).
